Measurements published in PMC9795544, “Identifying Novel Inhibitors for Hepatic Organic Anion Transporting Polypeptides by Machine Learning-Based Virtual Screening” (Journal of Chemical Information and Modeling, 2022).
Read-outs that look alike come from different tables or passages of the source.

Assays:
Assay type in all cases: cell-based
[1] = target: T1, OATP2B1 (Homo sapiens, UniProt O94956); experiment: Pyranine transport inhibition in A431 cells overexpressing OATP2B1
T1 construct: expressed in transfected cells; host or cells: A431 cells
T1 sequence (O94956 1-709): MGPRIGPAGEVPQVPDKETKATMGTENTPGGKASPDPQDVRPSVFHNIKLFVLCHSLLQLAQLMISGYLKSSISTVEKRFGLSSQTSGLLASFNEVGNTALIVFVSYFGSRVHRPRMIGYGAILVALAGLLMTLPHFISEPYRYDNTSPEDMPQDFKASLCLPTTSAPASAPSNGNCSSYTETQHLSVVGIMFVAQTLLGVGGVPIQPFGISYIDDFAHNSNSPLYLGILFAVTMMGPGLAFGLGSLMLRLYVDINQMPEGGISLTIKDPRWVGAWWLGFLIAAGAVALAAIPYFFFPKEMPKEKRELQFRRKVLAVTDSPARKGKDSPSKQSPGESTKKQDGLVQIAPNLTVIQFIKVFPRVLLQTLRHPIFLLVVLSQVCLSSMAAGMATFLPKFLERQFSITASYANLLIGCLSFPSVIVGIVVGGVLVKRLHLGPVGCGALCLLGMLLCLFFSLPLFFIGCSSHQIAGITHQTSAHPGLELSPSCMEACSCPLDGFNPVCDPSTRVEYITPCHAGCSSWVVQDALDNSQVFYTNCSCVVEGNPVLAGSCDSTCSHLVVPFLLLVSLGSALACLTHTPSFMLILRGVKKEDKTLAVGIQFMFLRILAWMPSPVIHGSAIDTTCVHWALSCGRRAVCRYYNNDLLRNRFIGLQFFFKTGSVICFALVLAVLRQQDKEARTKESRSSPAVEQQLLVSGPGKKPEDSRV
Procedure: (§1) A431 cells overexpressing OATP1B1, OATP1B3, or OATP2B1 or their mock transfected controls were generated previously[30] and maintained in Dulbecco’s modified Eagle medium (DMEM, Gibco, Thermofisher Scientific, Waltham, MA, US) supplemented with 10% fetal bovine serum, 2 mM L-glutamine, 100 units/mL penicillin, and 100 μg/mL streptomycin. Expression and function of OATPs in the cell lines were checked regularly.
(§2) Interaction with OATP1B1, OATP1B3, or OATP2B1 was tested in an indirect transport assay using pyranine (8-hydroxypyrene-1,3,6-trisulfonic acid trisodium salt, H1529, Sigma, Merck, Budapest, Hungary) as the test substrate[31],[32] A431 cells overexpressing OATP1B1, OATP1B3, or OATP2B1 or their mock transfected controls were seeded on 96-well plates in a density of 8 × 10^4 cells per well in 200 μL of cell culture medium 1 day prior to the transport measurements. […] The transport reaction was started by the addition of 50 μL of uptake buffer containing pyranine in a final concentration of 10 μM (OATP1B1) or 20 μM (OATP1B3 and OATP2B1), and the cells were further incubated at 37 °C for 15 min (OATP1B1 and OATP2B1) or 30 min (OATP1B3). The reaction was stopped by removing the supernatant. After repeated washing with ice-cold PBS, fluorescence was determined in an Enspire plate reader (PerkinElmer, Waltham, MA) with excitation/emission wavelengths of 460/510 nm. OATP-dependent transport was calculated by extracting fluorescence measured in mock transfected cells and normalized to the fluorescence signal obtained in the absence of the tested compounds (100%). Experiments were repeated in at least three biological replicates.

[2] = target: T2, OATP1B1 (Homo sapiens, UniProt Q9Y6L6); experiment: Pyranine transport inhibition in A431 cells overexpressing OATP1B1
T2 construct: expressed in transfected cells; host or cells: A431 cells
T2 sequence (Q9Y6L6 1-691): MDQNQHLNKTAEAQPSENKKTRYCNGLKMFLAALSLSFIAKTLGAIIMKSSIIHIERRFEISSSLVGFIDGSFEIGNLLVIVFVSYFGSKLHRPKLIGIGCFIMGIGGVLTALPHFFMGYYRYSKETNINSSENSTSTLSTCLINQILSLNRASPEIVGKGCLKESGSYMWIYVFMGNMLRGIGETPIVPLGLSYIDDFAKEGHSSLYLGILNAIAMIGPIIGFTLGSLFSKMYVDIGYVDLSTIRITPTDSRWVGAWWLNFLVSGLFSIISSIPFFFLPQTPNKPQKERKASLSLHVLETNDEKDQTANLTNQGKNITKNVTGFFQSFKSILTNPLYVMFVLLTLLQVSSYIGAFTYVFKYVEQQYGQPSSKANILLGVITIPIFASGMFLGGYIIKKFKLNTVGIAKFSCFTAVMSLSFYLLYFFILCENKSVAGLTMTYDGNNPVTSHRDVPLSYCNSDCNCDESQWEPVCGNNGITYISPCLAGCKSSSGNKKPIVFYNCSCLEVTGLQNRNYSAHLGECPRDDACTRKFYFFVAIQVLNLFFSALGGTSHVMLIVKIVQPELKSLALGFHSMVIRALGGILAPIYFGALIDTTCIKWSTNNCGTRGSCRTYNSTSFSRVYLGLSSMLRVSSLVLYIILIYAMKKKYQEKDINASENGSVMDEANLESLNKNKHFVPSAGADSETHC
Procedure: as §1, §2

[3] = target: T3, OATP1B3 (Homo sapiens, UniProt Q9NPD5); experiment: Pyranine transport inhibition in A431 cells overexpressing OATP1B3; conditions: for IC50: read-out: IC50 (μM) OATP1B3
T3 construct: expressed in transfected cells; host or cells: A431 cells
T3 sequence (Q9NPD5 1-702): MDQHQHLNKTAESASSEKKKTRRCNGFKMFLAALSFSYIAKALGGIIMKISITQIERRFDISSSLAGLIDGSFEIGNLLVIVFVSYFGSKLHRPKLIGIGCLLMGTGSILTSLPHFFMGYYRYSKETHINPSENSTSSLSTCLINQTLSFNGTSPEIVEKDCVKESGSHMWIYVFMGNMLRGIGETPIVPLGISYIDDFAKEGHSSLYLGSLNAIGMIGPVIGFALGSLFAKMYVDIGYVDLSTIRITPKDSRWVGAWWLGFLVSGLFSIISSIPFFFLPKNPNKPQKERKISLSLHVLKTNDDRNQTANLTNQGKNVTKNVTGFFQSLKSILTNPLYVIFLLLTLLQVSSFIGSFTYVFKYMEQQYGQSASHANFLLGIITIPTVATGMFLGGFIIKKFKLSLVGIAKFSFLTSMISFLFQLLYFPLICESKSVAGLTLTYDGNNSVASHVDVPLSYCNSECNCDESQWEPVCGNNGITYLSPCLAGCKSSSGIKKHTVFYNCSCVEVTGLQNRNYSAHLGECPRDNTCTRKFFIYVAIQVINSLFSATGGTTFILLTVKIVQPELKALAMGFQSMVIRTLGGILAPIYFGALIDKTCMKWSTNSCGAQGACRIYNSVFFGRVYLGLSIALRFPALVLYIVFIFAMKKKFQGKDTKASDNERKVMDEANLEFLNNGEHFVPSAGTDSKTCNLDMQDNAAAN
Procedure: as §1, §2

[4] = initial three-point screen (1, 10, 100 μM), category by concentration needed for 50% inhibition, pyranine 20 μM, 15 min, pH 5.5, read-out: IC50 (μM) OATP2B1
[5] = initial three-point screen (1, 10, 100 μM), category by concentration needed for 50% inhibition, pyranine 10 μM, 15 min, pH 5.5, read-out: IC50 (μM) OATP1B1
[6] = initial three-point screen (1, 10, 100 μM), category by concentration needed for 50% inhibition, pyranine 20 μM, 30 min, pH 5.5
[7] = IC50 (μM) OATP2B1, initial three-point screen (1, 10, 100 μM), category by concentration needed for 50% inhibition, pyranine 20 μM, 15 min, pH 5.5
[8] = full dose-response curve, eight concentrations, Hill1 fit, read-out: IC50 (μM) OATP2B1
[9] = full dose-response curve, eight concentrations, Hill1 fit
[10] = full dose-response curve, eight concentrations, Hill1 fit, read-out: IC50 (μM) OATP1B1

Structure (SMILES) | IC50 [1, 4] | IC50 [2, 5] | IC50 [3, 6] | also measured
CSCCC(NC(=O)c1ccco1)C(=O)OCc1cc(=O)oc2cc(O)ccc12 (stereo not drawn) [B7, CSCCC(NC(=O)c1occc1)C(=O)OCC2=CC(=O)Oc3cc(O)ccc23] | 1 to 10 µM | 1 to 10 µM | > 10 µM | –
CCc1ccccc1NC(=O)CN1CCN(C(=O)c2cc(-c3ccncc3)nc3ccccc23)CC1 [C3, CCc1ccccc1NC(=O)CN2CCN(CC2)C(=O)c3cc(nc4ccccc34)c5ccncc5] | 1 to 10 µM | 1 to 10 µM | > 10 µM | –
Cc1cccn2cc(COC(=O)c3ccc4c(c3)C(=O)N(Cc3ccco3)C4=O)nc12 [C4, Cc1cccn2cc(COC(=O)c3ccc4C(=O)N(Cc5occc5)C(=O)c4c3)nc12] | – | – | – | IC50 [1, 7]: > 10 µM; IC50 [2]: > 10 µM; IC50 (μM) OATP1B3 [3, 6]: no effect
Cc1cccc2nc(CSc3nc4sc5c(c4c(=O)n3Cc3ccccc3)CCCC5)cn12 [C5, Cc1cccc2nc(CSC3=Nc4sc5CCCCc5c4C(=O)N3Cc6ccccc6)cn12] | > 10 µM | > 10 µM | – | IC50 (μM) OATP1B3 [3, 6]: no effect
CC(C)c1cc(C(=O)N2CCC(n3c(=O)[nH]c4ccccc43)CC2)c2cnn(C(C)C)c2n1 [C6, CC(C)c1cc(C(=O)N2CCC(CC2)N3C(=O)Nc4ccccc34)c5cnn(C(C)C)c5n1] | 1 to 10 µM | 1 to 10 µM | 1 to 10 µM | –
O=C(O)c1cc(/C=C/c2c(-c3ccccc3)nc3ccccn23)nc2ccccc12 [C7, OC(=O)c1cc(\C=C\c2c(nc3ccccn23)c4ccccc4)nc5ccccc15] | < 1 µM | – | 1 to 10 µM | IC50 [1, 8]: 0.04 µM; IC50 [2]: > 10 µM; IC50 [3, 9]: 5.4 µM; fold lower affinity on OATP1B3 than on OATP2B1 ([3]; ratio of IC50 OATP1B3 / OATP2B1): 135 fold
O=C1NC2(CCCc3sccc32)C(=O)N1CC(=O)N1c2ccccc2OCC1c1ccccc1 (stereo not drawn) [D2, O=C(CN1C(=O)NC2(CCCc3sccc23)C1=O)N4C(COc5ccccc45)c6ccccc6] | > 10 µM | > 10 µM | > 10 µM | –
O=C(CCN1C(=O)NC2(CCCC2)C1=O)Nc1nc(-c2ccc3c(c2)CCC3)cs1 [D3, O=C(CCN1C(=O)NC2(CCCC2)C1=O)Nc3nc(cs3)c4ccc5CCCc5c4] | > 10 µM | – | – | IC50 (μM) OATP1B1 ([2]; initial three-point screen (1, 10, 100 μM), category by concentration needed for 50% inhibition, pyranine 10 μM, 15 min, pH 5.5): no effect; IC50 (μM) OATP1B3 [3, 6]: no effect
O=C(COc1ccc([N+](=O)[O-])cc1)Nc1c(C(=O)N2CCOCC2)oc2ccccc12 [D7, [O-][N+](=O)c1ccc(OCC(=O)Nc2c(oc3ccccc23)C(=O)N4CCOCC4)cc1] | – | – | – | IC50 [1, 7]: > 10 µM; IC50 [2]: > 10 µM; IC50 (μM) OATP1B3 [3, 6]: no effect
COc1ccc(C2(c3ccc(OC)cc3)NC(=O)N(CC(=O)c3ccc4c(c3)OCO4)C2=O)cc1 [E2, COc1ccc(cc1)C2(NC(=O)N(CC(=O)c3ccc4OCOc4c3)C2=O)c5ccc(OC)cc5] | 1 to 10 µM | > 10 µM | 1 to 10 µM | –
Cn1c(=O)[nH]c(=O)c2c1nc(N/N=C1/C(=O)Nc3ccccc31)n2CCCc1ccccc1 [E3, CN1C(=O)NC(=O)c2c1nc(N\N=C/3\C(=O)Nc4ccccc34)n2CCCc5ccccc5] | – | 1 to 10 µM | 1 to 10 µM | IC50 [1, 8]: 1.32 µM; IC50 [2, 10]: 2.69 µM; IC50 [3, 9]: 1.53 µM
O=C(NCc1cn(Cc2ccccc2)nc1-c1ccccc1)c1cc(F)cc(F)c1 [E5, Fc1cc(F)cc(c1)C(=O)NCc2cn(Cc3ccccc3)nc2c4ccccc4] | – | 1 to 10 µM | – | IC50 [1, 8]: 1.48 µM; IC50 [2, 10]: 7.61 µM; IC50 [3, 9]: 7.5 µM
CCn1cnc2c1c(=O)n(CC(=O)NC1CCCC(C)C1C)c(=O)n2Cc1ccccc1 (stereo not drawn) [E6, CCn1cnc2N(Cc3ccccc3)C(=O)N(CC(=O)NC4CCCC(C)C4C)C(=O)c12] | 1 to 10 µM | > 10 µM | > 10 µM | –
O=C(Nc1ccccc1)N1CCCC(C(=O)N2CCN(Cc3nc4ccccc4s3)CC2)C1 (stereo not drawn) [F3, O=C(Nc1ccccc1)N2CCCC(C2)C(=O)N3CCN(Cc4nc5ccccc5s4)CC3] | > 10 µM | > 10 µM | > 10 µM | –
Cc1ccc(OCc2nnc(SCC(=O)N3CCN(C(=O)Nc4ccccc4)CC3)o2)cc1 [F4, Cc1ccc(OCc2oc(SCC(=O)N3CCN(CC3)C(=O)Nc4ccccc4)nn2)cc1] | – | – | – | IC50 [1, 7]: > 10 µM; IC50 [2]: > 10 µM; IC50 (μM) OATP1B3 [3, 6]: Activated
Cc1cc(NS(=O)(=O)c2ccc(NC(=O)Cc3coc4c(C)c(C)ccc34)cc2)nc(C)n1 [F5, Cc1cc(NS(=O)(=O)c2ccc(NC(=O)Cc3coc4c(C)c(C)ccc34)cc2)nc(C)n1] | 1 to 10 µM | 1 to 10 µM | 1 to 10 µM | –
O=C(NCc1ccc(N2CCOCC2)nc1)c1ccccc1CSc1nc2ccccc2[nH]1 [F6, O=C(NCc1ccc(nc1)N2CCOCC2)c3ccccc3CSc4nc5ccccc5[nH]4] | 1 to 10 µM | > 10 µM | > 10 µM | –
O=C(Nc1ccccc1)C1CCN(C(=O)c2cc(-c3ccccc3)nc3ccccc23)CC1 [G2, O=C(Nc1ccccc1)C2CCN(CC2)C(=O)c3cc(nc4ccccc34)c5ccccc5] | 1 to 10 µM | 1 to 10 µM | 1 to 10 µM | –
